Measurements taken from US9145354B2, “Pharmaceutical compounds” (priority 2011, dated 2015).
Read-outs that look alike come from different tables or passages of the source.

Experiments:
full length NS3/4a = full length NS3/4a (Hepatitis C virus genotype 1b (isolate BK) (HCV), UniProt P26663); test: NS3 Protease Assay (Example A), FRET-based; type: biochemical
Method in brief: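 Initial rates were taken from fluorescence progress curves over 30 min at room temperature, and IC50 was fitted across replicates. In-house full-length NS3/4a cleaved a FRET peptide (5-FAMsp/QXL520) from the NS4A/B site. Medium: 50 mM Tris pH8, 20 mM DTT, 1% CHAPS, 10% glycerol, 5% DMSO.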

[1] = system: HCV subgenomic replicon in Huh-7 cells; test: Replicon Assay (Example B), luciferase readout EC50; type: cell-based; conditions: Hepatitis C virus
Procedure: The activities of compounds of the invention against HCV in a cellular environment were analysed using a replicon assay as described below.
(§1) Thus, Huh-7 cells persistently infected with an HCV-RNA construct (Bartenschlager, R. Hepatitis C replicons: potential role for drug development. Nature Rev. Drug Discov. 1, 911-916 (2002)) comprising: 5′ and 3′ non-translated regions (NTR); the non-structural genes NS3 to NS5b; as well as the G418 drug resistance gene, neomycin, (for selection of cells carrying HCV replicon RNA) fused to the firefly Luciferase reporter gene (pFKI3889Iuc-ubi-neo/NS3-3′/ET) were used to determine the cell based antiviral activity of compounds using luciferase activity as an indirect readout of HCV RNA load. In this assay […] huh-7 cells persistently infected with the HCV subgenomic replicon construct above were plated/well in a 96 well tissue culture plate. The cells were allowed to attach overnight in DMEM medium supplemented with 10% FBS 1% NEAA, and 250 μg/ml gentamicin. The following day the medium was replaced with 200 μl/well of fresh medium as described above lacking gentamicin. Semilog dilutions of compounds in medium were then added to triplicate wells (non-edge) of the cultured cells to give a 0.1% DMSO final concentration. Plates were then incubated at 37° C. in an atmosphere of 5% CO2 and air for 72 h. […] The plate was then read at 535 nm (excitation) and 590 nm (emission) on a SpectraMax Gemini reader (Molecular Devices) to determine the number of viable cells by measuring the conversion of rezasurin (Alamar blue) to resorufin in response to mitochondrial activity. In order to determine the antiviral effect of these compounds EC50 values were determined by measuring the luciferase activity of the cells. Alamar blue solution was removed from the wells and replaced with 100 μl/well of medium along with 100 μl/well of Bright-Glo reagent and incubated at room temperature for 5 minutes before transferring 100 μl/well to a white bottom 96 well plate to read in a luminometer as described in the Bright-Glo Luciferase Assay System protocol (promega).

[2] = Replicon Assay (Example B), Alamar Blue cytotoxicity CC50; type: cell-based; conditions: human, lower value of the cell pair
Text: as §1

[3] = HCV NS3 protease assay, full length NS3/4a, read-out: Assay A IC50 (μM) average
[4] = Huh-7, replicon assay, luciferase readout, upper value of the cell pair, read-out: Assay B EC50
[5] = read-out: IC50 against the protease activity of the full length NS3/4a

Chain of full length NS3/4a (P26663 1027-1657): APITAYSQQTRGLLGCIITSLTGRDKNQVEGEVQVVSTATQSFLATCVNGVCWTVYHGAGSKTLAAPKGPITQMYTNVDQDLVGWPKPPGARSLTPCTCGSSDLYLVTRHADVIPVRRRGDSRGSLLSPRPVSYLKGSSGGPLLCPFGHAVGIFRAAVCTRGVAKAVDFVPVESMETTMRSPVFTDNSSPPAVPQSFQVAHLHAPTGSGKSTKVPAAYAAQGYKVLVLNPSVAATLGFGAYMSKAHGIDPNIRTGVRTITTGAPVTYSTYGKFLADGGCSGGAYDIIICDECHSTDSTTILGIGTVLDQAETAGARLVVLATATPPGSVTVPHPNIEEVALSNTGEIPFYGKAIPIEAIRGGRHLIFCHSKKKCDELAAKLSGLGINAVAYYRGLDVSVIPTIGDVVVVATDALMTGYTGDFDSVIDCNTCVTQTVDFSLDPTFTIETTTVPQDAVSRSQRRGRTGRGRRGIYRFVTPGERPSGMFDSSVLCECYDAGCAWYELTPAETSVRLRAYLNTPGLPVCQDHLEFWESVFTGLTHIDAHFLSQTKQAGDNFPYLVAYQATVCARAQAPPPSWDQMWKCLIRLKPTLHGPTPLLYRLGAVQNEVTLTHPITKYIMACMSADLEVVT

| SMILES | IC50 (full length NS3/4a; [3]) [µM] | EC50 [1, 4] [nM] | CC50 at 72 h [2] [nM] | EC50 ([1]; Huh-7, pre-determined EC50 used to set concentrations in combination studies, read-out: EC50 (replicon)) [nM] | inhibition at 0.01 µM (full length NS3/4a; @ 0.01 uM) [%] | IC50 (full length NS3/4a; [5]) [µM] | inhibition at 0.1 µM (full length NS3/4a; @ 0.1 uM) [%] | inhibition at 0.03 µM (full length NS3/4a; @ 0.03 uM) [%] |
| --- | --- | --- | --- | --- | --- | --- | --- | --- |
| COc1cc(C(=O)c2c(Cl)ccc([C@H](N)C3CC3)c2F)ccc1C#N [Example 69, 4-({3-[(R)-amino(cyclopropyl)methyl]-6-chloro-2-fluorophenyl}carbonyl)-2-methoxybenzonitrile] | 0.052 | 33 | > 1000 |  |  |  |  |  |
| CC[C@@H](N[C@@H](C)CC(N)=O)c1ccc(Cl)c(C(=O)c2ccc(N)nc2)c1F [Example 81, (3S)-3-{[(1R)-1-{3-[(6-aminopyridin-3-yl)carbonyl]-4-chloro-2-fluorophenyl}propyl]-amino}butanamide] | 0.22 | 18 | > 3000 | 20 |  |  |  |  |
| CC[C@@H](N[C@@H](C)CC(=O)NCCN)c1ccc(Cl)c(C(=O)c2ccccc2)c1F [Example 88, (3S)-N-(2-aminoethyl)-3-{[(1R)-1-(3-benzoyl-4-chloro-2-fluorophenyl)propyl]-amino}butanamide] |  | 45 | > 3000 |  | 52 |  |  |  |
| CC[C@@H](N[C@@H](C)CC(N)=O)c1ccc(Cl)c(C(=O)c2ccc(F)c(F)c2)c1F [Example 90, (3S)-3-{[(1R)-1-{4-chloro-3-[(3,4-difluorophenyl)carbonyl]-2-fluorophenyl}propyl]amino}-butanamide] | 0.13 | 380 | > 3000 |  |  |  |  |  |
| CC[C@@H](N[C@@H](C)CC(N)=O)c1ccc(Cl)c(C(=O)c2ccc(C#N)cc2)c1F [Example 91, (3S)-3-{[(1R)-1-{4-chloro-3-[(4-cyanophenyl)carbonyl]-2-fluorophenyl}propyl]amino}-butanamide] | 0.066 | 1.2 | > 10000 |  |  |  |  |  |
| CC[C@@H](N[C@@H](C)CC(N)=O)c1ccc(Cl)c(C(=O)c2cccnc2)c1F [Example 93, (3S)-3-{[(1R)-1-{4-chloro-2-fluoro-3-[(pyridin-3-yl)carbonyl]phenyl}propyl]-amino}butanamide] | 0.14 | 510 | > 3000 |  |  |  |  |  |
| CC[C@@H](N[C@@H](C)CC(N)=O)c1ccc(Cl)c(C(=O)c2cccc(F)c2)c1F [Example 95, (3S)-3-{[(1R)-1-{4-chloro-2-fluoro-3-[(3-fluorophenyl)-carbonyl]-phenyl}propyl]-amino}-butanamide] | 0.085 | 41 | > 3000 |  |  |  |  |  |
| CC[C@@H](N[C@@H](C)CC(N)=O)c1ccc(Cl)c(C(=O)c2ccc(F)cc2)c1F [Example 97, (3S)-3-{[(1R)-1-{4-chloro-2-fluoro-3-[(4-fluorophenyl)-carbonyl]-phenyl}propyl]-amino}-butanamide] | 0.047 | 19 | > 3000 |  |  |  |  |  |
| CC[C@@H](N[C@@H](C)CC(N)=O)c1ccc(Cl)c(C(=O)c2cccc(C#N)c2)c1F [Example 101, (3S)-3-{[(1R)-1-{4-chloro-3-[(3-cyanophenyl)carbonyl]-2-fluorophenyl}propyl]amino}-butanamide] | 0.11 | 160 | > 3000 |  |  | < 1 |  |  |
| C[C@@H](CC(N)=O)N[C@@H](c1ccc(Cl)c(C(=O)c2ccccc2)c1F)C1CC1 [Example 103, (3S)-3-{[(R)-(3-benzoyl-4-chloro-2-fluorophenyl)-(cyclopropyl)-methyl]-amino}-butanamide] | 0.077 | 5.8 | > 3000 |  |  | < 1 |  |  |
| CC[C@@H](N[C@@H](C)CC(N)=O)c1ccc(Cl)c(C(=O)c2ccccn2)c1F [Example 104, (3S)-3-{[(1R)-1-{4-chloro-2-fluoro-3-[(pyridin-2-yl)carbonyl]phenyl}-propyl]amino}butanamide] | 0.24 | 390 | > 3000 |  |  | < 1 |  |  |
| CC[C@@H](N[C@@H](C)CC(N)=O)c1ccc(Cl)c(C(=O)c2ccncc2)c1F [Example 106, (3S)-3-{[(1R)-1-{4-chloro-2-fluoro-3-[(pyridin-4-yl)carbonyl]phenyl}-propyl]amino}butanamide] | 0.11 | 57 | > 3000 |  |  | < 1 |  |  |
| CC[C@@H](N[C@@H](C)CC(N)=O)c1ccc(Cl)c(C(=O)c2ccns2)c1F [Example 108, (3S)-3-{[(1R)-1-{4-chloro-2-fluoro-3-[(1,2-thiazol-5-yl)carbonyl]phenyl}propyl]-amino}butanamide] | 0.07 | 270 | > 3000 |  |  |  |  |  |
| CC[C@@H](N[C@@H](C)CC(N)=O)c1ccc(Cl)c(C(=O)c2cc(C)on2)c1F [Example 110, (3S)-3-{[(1R)-1-{4-chloro-2-fluoro-3-[(5-methyl-1,2-oxazol-3-yl)carbonyl]-phenyl}-propyl]amino}-butanamide] | 0.17 | 510 | > 3000 |  |  |  |  |  |
| CC[C@@H](NC(C)(C)CC(N)=O)c1ccc(Cl)c(C(=O)c2cccnc2)c1F [Example 113, 3-{[(1R)-1-{4-Chloro-2-fluoro-3-[(pyridin-3-yl)carbonyl]phenyl}propyl]amino}-3-methylbutanamide] | 0.093 | 180 | > 3000 |  |  |  |  |  |
| [2H]C([2H])([2H])C([2H])([2H])[C@@H](N[C@@H](C)CC(N)=O)c1ccc(Cl)c(C(=O)c2ccccc2)c1F [Example 115, (3S)-3-{[(1R)-1-(3-benzoyl-4-chloro-2-fluorophenyl)(2,2,3,3,3-D)propyl]amino}-butanamide] |  | 4.1 | > 3000 |  |  |  | 59 |  |
| CC[C@@H](N[C@@H](C)CC(N)=O)c1ccc(Cl)c(C(=O)c2ccc[n+]([O-])c2)c1F [Example 116, (S)-3-{(R)-1-[4-Chloro-2-fluoro-3-(1-oxy-pyridine-3-carbonyl)-phenyl]-propylamino}-butyramide] | 0.81 | > 3000 | > 3000 |  |  |  |  |  |
| C[C@@H](CC(N)=O)N[C@@H](c1ccc(Cl)c(C(=O)c2cccnc2)c1F)C1CC1 [Example 119, (3S)-3-{[(R)-{4-chloro-2-fluoro-3-[(pyridin-3-yl)carbonyl]phenyl} (cyclopropyl)methyl]amino}-butanamide] | 0.12 | 71 | > 3000 |  |  | < 1 |  |  |
| C[C@@H](CC(N)=O)N[C@@H](c1ccc(Cl)c(C(=O)c2ccc(F)cc2)c1F)C1CC1 [Example 121, (3S)-3-{[(R)-{4-chloro-2-fluoro-3-[(4-fluorophenyl)-carbonyl]phenyl}(cyclopropyl)methyl]amino}butanamide] |  | 9.9 | > 3000 |  |  |  |  | 38 |
| CC[C@@H](N[C@@H](C)C1(C(N)=O)CC1)c1ccc(Cl)c(C(=O)c2cccnc2)c1F [Example 132, 1-[(1S)-1-{[(1R)-1-{4-chloro-2-fluoro-3-[(pyridin-3-yl)carbonyl]phenyl}propyl]amino}ethyl]cyclopropane-1-carboxamide] | 0.14 | 25 | > 3000 |  |  |  |  |  |
| CC[C@@H](N[C@@H](C)CC(N)=O)c1ccc(Cl)c(C(=O)c2ccc(C#N)nc2)c1F [Example 133, (3S)-3-{[(1R)-1-{4-chloro-3-[(6-cyanopyridin-3-yl)carbonyl]-2-fluorophenyl}propyl]-amino}butanamide] | 0.12 | > 3000 | > 3000 |  |  |  |  |  |
